Format in all cases: cell-based, human
One assay concerns TNF-α. As to the kind of experiment: TNF-α concentration in supernatant of treated FLS (sandwich ELISA). Particulars: FLS from patients with rheumatoid arthritis, treated 24 hours, mixture = 100 μg hyaluronic acid + 5 micro-mole lovastatin in 1 ml, control group 347.00. The protocol:
(§1) Fibroblast-like synoviocytes (FLS) from seven patients with rheumatoid arthritis (RA) were collected and incubated. First, the joint synovia from the patients were cut into small pieces and suspended in a DMEM medium (Dulbecco modified eagle's medium, comprising 1.5 g/L sodium bicarbonate (S6297, Sigma-Aldrich Co. St Louis, Mo., USA), 1% penicillin-streptomycin-neomycin (P4083, Sigma-Aldrich Co.), and 10% fetal bovine serum (04-001-1A, Biological Industries, Grand Island, N.Y., USA)), and were incubated in the environment under 37° C., 5% CO2 for three days.
(§2) The non-adherent cells were washed out with a phosphate buffer solution (PBS), the medium was refreshed, and the retained adherent cells were cultivated for two weeks. […]
(§3) The concentrations of two RA-related factors, TNF-α (the standard sample was purchased from eBioscience, Ltd., 88-7340) and IL-8 (the standard sample was purchased from R&D systems, Inc., USA, DY208), in the supernatants collected from Experiment B were measured using a sandwich binding protein assay kit or sandwich ELISA kits (purchased from eBioscience, Ltd. and R&D systems, Inc.) according to the manufacturer's manual and standard curves to observe the expression level of the factors, thereby determining the inflammation condition of the cells. Each sample was analyzed twice, and an ELISA reader (Sunrise Remote, TECAN) was used to conduct the measurement. […]

Another assay concerns IL-8. As to the kind of experiment: IL-8 concentration in supernatant of treated FLS (sandwich ELISA). Particulars: FLS from patients with rheumatoid arthritis, treated 24 hours, mixture = 100 μg hyaluronic acid + 5 micro-mole lovastatin in 1 ml, control group 736.00. (In general: An ELISA detects its analyte on a solid surface through an enzyme-linked reagent.)
Assay [1] deals with Fibroblast-like synoviocytes (FLS). As to the kind of experiment: Inflammation level of FLS judged from secreted TNF-α and IL-8. The following applies: FLS from patients with RA, treated 24 hours; TNF-α and IL-8 versus control group / HA only. How it is done:
as §1, §2, §3

These results are taken from patent publication US8691796B2, “Pharmaceutical composition and method for inhibiting inflammation” (China Medical University, priority 2010, dated 2014).

Take `CC[C@H](C)C(=O)O[C@H]1C[C@@H](C)C=C2C=C[C@H](C)[C@H](CC[C@@H]3C[C@@H](O)CC(=O)O3)[C@H]21` [HMG-CoA reductase inhibitor, Lovastatin]: the “TNF-α concentration, Average concentration” value with TNF-α was 355.07 pg/mL. Moreover, in the assay with IL-8, the “IL-8 concentration, Average concentration” value was found to be 703.94 pg/mL.
As to hyaluronic acid [HA], the “TNF-α concentration, Average concentration” value with TNF-α worked out at 296.46 pg/mL. In addition, the “inflammation level (effect of inhibiting the inflammation)” value in assay [1] was “the inflammation level was lowered”. Moreover, the “IL-8 concentration, Average concentration” value with IL-8 was found to be 353.40 pg/mL.
